From patent US8450271B2, “Peptide-based scaffolds for cartilage regeneration and methods for their use” (Northwestern University, priority 2009, dated 2013)
Where no end group is shown, it is not given here. The star is where a group is joined. Lauroyl = CCCCCCCCCCCC(=O)*

Legend:
recombinant TGF-β1 = recombinant TGF-β1 (Homo sapiens, UniProt P01137); settings: among all possible 7-mer peptide sequences; cited from earlier work
[1] = tested on: Rabbit Full Thickness Articular Cartilage Defects; test: Animal observation and gross pathology of rabbit knee cartilage defects at 12 weeks; format: in vivo, New Zealand White Rabbits; settings: gross examination at 12 weeks
Method: Animal study was conducted at Northwestern University (Chicago, Ill.) in accordance with a protocol approved by the University's Animal Care and Usage Committee (ACUC). Ten (10) male New Zealand White Rabbits (weighing 3-3.5 kg) were anesthetized by intramuscular injection of ketamine at 30-40 mg/kg and xylazine 5-7 mg/kg. Isoflourane (1-3%) and oxygen were supplied by face mask until the animal was induced to sedation and general anesthesia for the entire procedure. Life support monitoring was supervised by veterinarians at Northwestern University's Center for Comparative Medicine (CCM, Chicago, Ill.). Under sterile aseptic technique, a midline 2-cm incision was made with the knee flexed at 20 degrees and subsequently a medial parapatellar capsulotomy was performed and the patella was translated laterally to expose the articular surface of the trochlea. Two full thickness chondral defects 2-mm in diameter were created in the trochlea (proximal-medial and distal-lateral) using curettes. […]
Post-operatively each rabbit was given intramuscular (IM) antibiotics (Baytril 72 hours duration) and IM pain medicine (Buprenex 24 hours duration). Signs of local or systemic infection were recorded as well as the general health and recovery of the rabbits. Rabbits were also evaluated for ability to weight bear and mobility within cages. […]

[2] = tested on: Rabbit Full Thickness Articular Cartilage Defects; test: Histological evaluation (O'Driscoll scoring) of cartilage regeneration after microfracture in rabbit articular cartilage defect model; format: in vivo, New Zealand White Rabbits
Method: Animal study was conducted at Northwestern University (Chicago, Ill.) in accordance with a protocol approved by the University's Animal Care and Usage Committee (ACUC). Ten (10) male New Zealand White Rabbits (weighing 3-3.5 kg) were anesthetized by intramuscular injection of ketamine at 30-40 mg/kg and xylazine 5-7 mg/kg. Isoflourane (1-3%) and oxygen were supplied by face mask until the animal was induced to sedation and general anesthesia for the entire procedure. Life support monitoring was supervised by veterinarians at Northwestern University's Center for Comparative Medicine (CCM, Chicago, Ill.). Under sterile aseptic technique, a midline 2-cm incision was made with the knee flexed at 20 degrees and subsequently a medial parapatellar capsulotomy was performed and the patella was translated laterally to expose the articular surface of the trochlea. Two full thickness chondral defects 2-mm in diameter were created in the trochlea (proximal-medial and distal-lateral) using curettes. The articular cartilage, including the calcified cartilage layer, was completely removed and subchondral bone was exposed using a micro-curette as shown in FIG. 4a. Care was taken to not disrupt the subchondral bone, and sharp edges were created at the transition zone with the surrounding intact cartilage. Microfracture was performed within the defects by creating 3 holes spaced equally apart, and 2-mm deep to subchondral bone with a micro-awl. Marrow blood was seen emerging out of each microfracture hole and was allowed to infiltrate the cartilage defect (see FIG. 4b), which was then treated as described in Example 4.2 by application of the TGF-binding peptide amphiphile gel, or a control gel, with or without the addition of exogenous recombinant TGF-β1.
Post-operatively each rabbit was given intramuscular (IM) antibiotics (Baytril 72 hours duration) and IM pain medicine (Buprenex 24 hours duration). Signs of local or systemic infection were recorded as well as the general health and recovery of the rabbits. Rabbits were also evaluated for ability to weight bear and mobility within cages. At 12-weeks post-surgery rabbits were euthanized by injection of pentobarbital intravenously with a secondary measure of bilateral thoracotomy. Subsequently, the distal femur was harvested and processed for histological analysis.
Two full-thickness defects were created in each knee, resulting in 4 defects per rabbit (or 40 defects total for the 10 rabbits studied). Rabbit knees were divided into 4 groups, with both defects in each knee receiving the same treatment, and the contralateral knee serving as a control to account for any systemic effects. A total volume of 10 microliters (uL) of the test solutions were administered directly to each cartilage defect by micropipette, using sterile, disposable plastic tips. The treatment received by each group is summarized as follows:
In order to induce gelation of the peptide amphiphile solutions in situ in the defect site, 8 uL of a 12.5 mg/mL PA solution in phosphate-buffered saline (PBS) was administered followed immediately by 2 uL of a 0.5 M CaCl2 (in water), resulting in a final concentration of 10 mg/mL of the peptide amphiphile and 100 mM CaCl2. Recombinant human TGF-β1 (rhTGF-β1, Peprotech Inc.) was included in the PA solutions for Group 1, 2 and 3, in a concentration of […], resulting in a total dose of 1 ng per defect at the treatment dose of 10 uL. For animals receiving the TGF-binding peptide amphiphile (SEQ ID NO:4) this molecule was mixed at 10 mol % with the filler peptide amphiphile (SEQ ID NO:8) (a 1:9 molecular ratio). Each defect received 0.1 mg total peptide amphiphile (10 mg/mL in a 10 uL dose), either filler PA alone (Group 2) or filler PA plus TGF-binding PA (Group 3 and 4).
After the animals were sacrificed and tissue harvested at 12 weeks, extracted femur specimens were fixed in 10% neutral buffered formalin, decalcified for 24 hours, and the tissue processed for paraffin embedding. […]

[3] = O'Driscoll score = 0, 1, 2 or 3, Mean ± SD, 12-weeks post-treatment
[4] = O'Driscoll score = 0, 1 or 2, Mean ± SD, 12-weeks post-treatment

Sequence of recombinant TGF-β1 (P01137 279-390 limits assumed): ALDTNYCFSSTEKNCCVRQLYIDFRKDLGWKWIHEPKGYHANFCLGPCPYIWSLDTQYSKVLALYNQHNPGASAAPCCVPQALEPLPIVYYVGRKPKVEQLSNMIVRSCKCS

## HSNGLPL
Recombinant TGF-β1
  binding to recombinant TGF-β1 (phage display): strong, specific binding sequence

## HSNGLPLGGGSEEEAAAVVV(K)-CO(CH2)10CH3 (HSNGLPLGGGSEEEAAAVVVK(Lauroyl)) [TGF-binding PA]
[1]
  macroscopic appearance of repair tissue (tissue fill, defect boundary): significantly more hyaline-like tissue filling the defects

## rhTGF-β1: Recombinant human TGF-β1 (Peprotech Inc.); Group 1: 10 uL of PBS with 1 ng of rhTGF-β1
[2]; 12 weeks, compared to controls
  qualitative assessment of histological sections (tissue morphology, defect fill, Safranin-O and Type II collagen staining): few had complete filling of the defect area
[2]; [3]
  Degenerative Changes: 2.70 ± 0.35
  Hypocellularity: 1.96 ± 0.72
  Safranin-O staining of matrix: 1.48 ± 0.60
  Surface regularity: 2.00 ± 0.80
[2]; [4]
  Bonding to adjacent cartilage: 1.33 ± 0.53
  Chondrocyte clustering: 1.26 ± 0.40
  Structural integrity: 1.07 ± 0.62
  Thickness: 1.15 ± 0.60
[2]; O'Driscoll score = 0, 2, or 4, Mean ± SD, 12-weeks post-treatment
  Cellular morphology: 2.56 ± 1.43
[2]; O'Driscoll total histological score, Mean ± SD, 12-weeks post-treatment
  Total (max. score = 24): 15.52 ± 4.74
[2]; maximum possible score of 24, 12 weeks
  O'Driscoll histological score: 15.5±4.7
[2]; number of defects, 12 weeks
  defects with <50% thickness compared to the surrounding cartilage: 1 of 9
  defects with mild chondrocyte clustering: 7 of 9
  defects with normal cellularity in the regenerated tissue: 2 of 9
  defects with regenerated tissue completely bonded to the adjacent cartilage: 3 of 9
[2]; number of remaining defects, 12 weeks
  defects with >50% but <100% (50%-100%) thickness compared to the surrounding cartilage: 8
